# Where two headings read alike, the source gives them in different places.
# Experiments:
# [1] = test system: B16 melanoma; experiment: MTT cytotoxicity assay, B16; format: cell-based, mouse; conditions: 72 hours (TCS50 in the method)
# Excerpt: (§1) One of the parameters used as the basis for colorimetric assays is the metabolic activity of viable cells. For example, a microtiter assay, which uses the tetrazolium salt MTT, is now widely used to quantitate cell proliferation and cytotoxicity. For instance, this assay is used in drug screening programs and in chemosensitivity testing. Because only metabolically active cells cleave tetrazolium salts, these assays detect viable cells exclusively. In the case of MTT assay, yellow soluble tetrazolium salt is reduced to coloured water-insoluble formazan salt. After it is solubilized, the formazan formed can easily and rapidly be quantified in a conventional ELISA plate reader at 570 nm (maximum absorbance). The quantity of reduced formazan corresponds to number of vital cells in the culture. Human T-lymphoblastic leukemia cell line CEM; promyelocytic HL-60 and monocytic U937 leukemias; breast carcinoma cell lines MCF-7, BT549, MDA-MB-231; glioblastoma U87MG cells; cervical carcinoma cells HELA; sarcoma cells U20S and Saos2; hepatocellular carcinoma HepG2; mouse immortalized bone marrow macrophages B2.4 and B10A.4; P388D1 and L1210 leukemia; B16 and B16F10 melanomas were used for routine screening of the compounds according to the invention. The cells were maintained in Nunc/Corning 80 cm^2 plastic tissue culture flasks and cultured in cell culture medium (DMEM with 5 g/l glucose, 2 mM glutamine, 100 U/ml penicillin, 100 μg/ml streptomycin, 10% fetal calf serum and sodium bicarbonate).
# (§2) The cell suspensions that were prepared and diluted according to the particular cell type and the, expected target cell density (2500-30000 cells per well based on cell growth characteristics) were added by pipette (80 μl) into 96-well microtiter plates. Inoculates were allowed a pre-incubation period of 24 hours at 37° C. and 5% CO2 for stabilisation. Four-fold dilutions of the intended test concentration were added at time zero in 20 μl aliquots to the microtiter plate wells. Usually, test compound was evaluated at six 4-fold dilutions. In routine testing, the highest well concentration was 266.7 μM, but it can be the matter of change dependent on the agent. All drug concentrations were examined in duplicates. Incubations of cells with the test compounds lasted for 72 hours at 37° C., in 5% CO2 atmosphere and 100% humidity. At the end of incubation period, the cells were assayed by using the MTT. Ten microliters of the MTT stock solution were pipetted into each well and incubated further for 1-4 hours. After this incubation period, formazan was solubilized by addition of 100 μl/well of 10% SDS in water (pH=5.5) followed by further incubation at 37° C. overnight. The optical density (OD) was measured at 540 nm with the Labsystem iEMS Reader MF (UK). The tumour cell survival (TCS) was calculated using the following equation: TCS=(ODdrug exposed well/mean ODcontrol wells)×100%. The TCS50 value, the drug concentration lethal to 50% of the tumour cells, was calculated from the obtained dose response curves.
# (§3) The cytoxicity of novel compounds was tested on panel of cell lines of different histogenetic and species origin (Table 7). Equal activities were found in all tumour cell lines tested. […] Importantly, this observation distinguishes the purine derivatives of the invention from flavopiridol and related compounds, as their biological activity is dependent on p53 status.
# [2] = test system: T-lymphoblastic leukemia cell line CEM; experiment: MTT cytotoxicity assay, CEM; format: cell-based, human; conditions: 72 hours (TCS50 in the method)
# Excerpt: as §1, §2, §3
# [3] = test system: myeloid leukemia KG1 cell line; experiment: cell growth of KG1 cell line, flow cytometric cell count; conditions: read-out: KGI IC50
# Description: To determine reversibility of the effects of the new compounds, cells were plated at 10,000 per well and exposed to 0-50 μM of the composed, either continuously for 7 days (control) or only for 6 hours. In the latter case, cells were washed after 6 hours in phosphate-buffered-saline (PBS) (Life Technologies) and reseeded into drug-free medium for 7 days.
# [4] = test system: PHA-stimulated lymphocytes (PBMC); experiment: cell number of PHA-stimulated lymphocytes (PBMC), flow cytometry; format: cell-based, human; conditions: 96 hours, in the presence of IL-2; for CC50: Homo sapiens, Lymphocyte, read-out: Lymphocytes IC50
# Description: Human peripheral blood mononuclear cells were isolated by density gradient (Ficoll-Hypaque) (LSM, ICN Biomedicals Inc.). PBMC were stimulated with 5 μg/ml phytohemaglutinin A (PHA) (Sigma) during 24-48 hours in IMDM supplemented with 10% FCS (IMDM/10% FCS) at 37° C. After washing off the PHA, PBMC were incubated with interleukin-2 (IL-2) (10 U/ml) (Genzyme).
# (§4) Cells were plated at 10000 per well in 200 μl IMDM medium and incubated with 0-50 μM of the compounds of the invention (Table 5), by addition of the drugs directly to the culture medium and incubated at 37° C. for 96 hours. Absolute cell number was determined by addition of a known concentration of Fluoresbrite microspheres (FITC) (Polysciences, Inc.). The absolute number of cells per well was calculated as: {(total number of beads added per well)/(number of beads measured)}×(number of measured cells in the gate of interest). All analyses were performed with a FACScan (BD), using CELLQuest software (Becton Dickinson).
# The novel compounds were tested for cytotoxicity on PHA-stimulated lymphocytes (PBMC), as one of the normal counterparts of the cell lines. Cells were grown for 96 hours in the presence of IL-2 and different concentrations of the novel compounds and cell number was counted on the flow cytometer.
# [5] = test system: T-lymphocyte leukemia Molt3 cell line; experiment: cell growth of Molt3 cell line, flow cytometric cell count; format: cell-based, human; conditions: 96 hours of culture
# Description: Cell lines: Human leukemic cell lines were obtained from the American Type Culture Collection (ATCC, Rockville, Md., USA). They were cultured in Iscove's Modified Dulbecco's Medium (IMDM) supplemented with 10% heat inactivated fetal calf serum (FCS), 200 U/ml penicillin, 200 μg/ml streptomycin and 1 μg/ml amphotericin B. Cells were cultured in a 5% CO2-95% air fully humidified incubator. For effects on clonogenic output, 1000 cells/well were plated in duplicate in methylcellulose (0.9%), supplemented with 20% FCS and cultured for 14 days.
# as §4
# The response of the myeloid leukemia KG1 and T-lymphocyte leukemia Molt3 cell lines to the cytostatic effect of the novel compounds was determined using the above-mentioned standardized bead suspension that was used to determine the absolute cell number by flow cytometric (FCM) measurement. Cells were grown in the presence of increasing concentrations of the compounds of the invention.
# [6] = target: T1, CDC2 (Homo sapiens, UniProt P06493); experiment: p34cdc2 (CDC2) kinase inhibition assay, histone H1 substrate; format: biochemical
# T1 construct: made in house; host or cells: Sf9 insect cells, baculovirus co-infection
# Description: Cyclin-dependent kinases (p34^cdc2, p33^cdk2, p33^cdk4 and cyclins (cyclin B, E and DI) are produced in Sf9 insect cells coinfected with appropriate baculoviral constructs. The cells are harvested 68-72 hrs post infection in lysis buffer for 30 min on ice and the soluble fraction is recovered by centrifugation at 14.000 g for 10 min. The protein extract is stored at −80° C.
# To carry out experiments on kinetics under linear conditions, the final point test system for kinase activity measurement is used. The kinase is added to the reaction mixture in such a way that linear activity is obtained with respect to the concentration of enzyme and with respect to time.
# Inhibition of p33^cdk4 kinase is determined with Rb-GST (0.2 mg/ml) as the substrate. Kinase activity is determined at 30° C. in kinase buffer.
# Tested compounds are usually dissolved to 100 mM solutions in DMSO, the final concentration of DMSO in reaction mixture never exceeds 1%. The controls contain suitable dilutions of DMSO. After 10 min, the addition of 3×SDS sample buffer stops the incubations. […] The measurement of kinase activity is done using digital image analysis. The kinase activity is expressed as a percentage of maximum activity, the apparent inhibition constants are determined by graphic analysis. Kinase buffer: 50 mM Hepes pH 7.4, 10 mM MgCl21 5 mM EGTA, 10 mM 2-glycerolphosphate,
# [7] = test system: normal human lymphocytes; experiment: concanavalin A induced lymphocyte proliferation, [3H]-TdR incorporation; format: cell-based; conditions: 72 hours, read-out: ED50 (the source's name)
# Description: Human heparinized peripheral blood was obtained from healthy volunteers by cubital vein punction. The blood was diluted in PBS (1:3) and mononuclear cells were separated by centrifugation in Ficoll-Hypaque density gradient (Pharmacia, 1.077 g/ml) at 2200 rpm for 30 minutes. Following centrifugation, lymphocytes were washed in PBS and resuspended in cell culture medium (RMPI 1640, 2 mM glutamine, 100 U/ml penicillin, 100 μg/ml streptomycin, 10% fetal calf serum and sodium bicarbonate).
# The cells were diluted at target density of 1100000 cells/ml and were added by pipette (180 μl) into 96/well microtiter plates. Four-fold dilutions of the intended test concentration were added at time zero in 20 μl aliquots to the microtiter plate wells. Usually, test compound was evaluated at six 4-fold dilutions. In routine testing, the highest well concentration was 266.7 μM. All drug concentrations were examined in duplicates. All wells with exception of unstimulated controls were activated with 50 μl of concanavalin A (25 μg/ml). Incubations of cells with test compounds lasted for 72 hours at 37° C., in 5% CO2 atmosphere and 100% humidity. At the end of incubation period, the cells were assayed by using the [^3H]-TdR:
# Cell cultures were incubated with […] (20 μl of stock solution 500 μCi/ml) per well for 6 hours at 37° C. and 5% CO2. The automated cell harvester was used to lyse cells in water and adsorb the DNA onto glass-fiber filters in the format of microtiter plate. The DNA incorporated [^3H]-TdR was retained on the filter while unincorporated material passes through. The filters were dried at room temperature overnight, sealed into a sample bag with 10-12 ml of scintillant. The amount of [^3H]-TdR present in each filter (in cpm) was determined by scintillation counting in a Betaplate liquid scintillation counter. The effective dose of immunosuppressant (ED) was calculated using the following equation: ED=(cpmdrug exposed well/mean cpmcontrol wells)×100%. The EDs50 value, the drug concentration inhibiting proliferation of 50% of lymphocytes, was calculated from the obtained dose response curves.
# To evaluate immunosuppressive activity of substituted adenines, their ability to inhibit polyclonal mitogen induced proliferation of normal human lymphocytes was analyzed (Table 8). […] Effective immunosuppressive dose of new derivatives under in vitro conditions was close to 1-20 μM.
# [8] = Table 5, CDC2 activity in cell free system
# T1 sequence (P06493 whole entry, species assumed): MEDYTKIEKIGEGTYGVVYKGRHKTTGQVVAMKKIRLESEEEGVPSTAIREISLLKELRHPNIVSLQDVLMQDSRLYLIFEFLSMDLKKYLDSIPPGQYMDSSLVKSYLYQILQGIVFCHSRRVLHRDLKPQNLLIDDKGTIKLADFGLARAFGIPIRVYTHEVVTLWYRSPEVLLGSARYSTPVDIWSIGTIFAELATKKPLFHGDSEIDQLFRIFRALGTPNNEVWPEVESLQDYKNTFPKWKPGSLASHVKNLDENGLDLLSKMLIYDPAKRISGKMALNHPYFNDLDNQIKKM
# T1 sequence (P14635 whole entry partner, species assumed): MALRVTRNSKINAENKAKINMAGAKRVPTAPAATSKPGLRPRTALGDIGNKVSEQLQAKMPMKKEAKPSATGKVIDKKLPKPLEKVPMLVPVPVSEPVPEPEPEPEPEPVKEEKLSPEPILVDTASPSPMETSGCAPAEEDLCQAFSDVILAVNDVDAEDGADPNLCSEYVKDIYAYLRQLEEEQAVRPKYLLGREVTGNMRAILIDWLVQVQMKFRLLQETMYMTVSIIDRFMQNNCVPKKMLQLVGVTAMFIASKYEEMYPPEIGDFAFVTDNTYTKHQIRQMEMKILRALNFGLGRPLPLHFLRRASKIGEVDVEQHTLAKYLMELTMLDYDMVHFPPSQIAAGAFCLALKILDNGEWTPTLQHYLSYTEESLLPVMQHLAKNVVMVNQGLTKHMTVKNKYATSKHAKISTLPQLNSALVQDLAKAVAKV
compound,measurement,setting,value
CC(C)n1cnc2c(NCc3ccc(O)c(O)c3)nc(NCCO)nc21,IC50,[1],32 µM
same,IC50,[2],35 µM
"CC(C)n1cnc2c(NC(CO)c3ccccc3)nc(CCCCCC#N)nc21 (racemic) [P24, 2-(5-cyanopentyl)-6-[(R,S)-(1-phenyl-2-hydroxyethyl)amino]-9-isopropylpurine]",IC50,[3]; 96 hours of culture,42 ± 4.8 µM
same,IC50,[4],33 ± 4.4 µM
same,IC50,[5],42.5 ± 6 µM
same,IC50,[6]; [8],6.3 µM
"CC(C)n1cnc2c(NC(CO)c3ccccc3)nc(SCCO)nc21 (stereo not shown) [P22, 2-(2-hydroxyethylthio)-6-(1-phenyl-2-hydroxyethylamino)-9-isopropylpurine]",IC50,"[3]; Homo sapiens, KG-1, 96 h",13 ± 1.4 µM
same,CC50,[4],11 ± 1.5 µM
same,IC50,"[5]; Homo sapiens, MOLT-3",17 ± 1.7 µM
same,IC50,[6]; [8],3.8 µM
CC(C)n1cnc2c(NCc3ccc(O)c(O)c3)nc(NC[C@H](C)O)nc21,IC50,[1],10 µM
same,IC50,[2],12 µM
CC[C@H](CO)Nc1nc(NCc2ccc(O)cc2)c2ncn(C(C)C)c2n1 [P19],IC50,[3]; 96 hours of culture,11 ± 1.3 µM
same,IC50,[4],6 µM
same,IC50,[5],15 ± 2 µM
CCCCCCNc1nc(NC(C)c2ccc(O)c(O)c2)c2ncn(C(C)C)c2n1 (stereo not shown) [P17],IC50,[3]; 96 hours of culture,35.3 ± 5.7 µM
same,IC50,[4],18 ± 2.8 µM
same,IC50,[5],24 ± 6.2 µM
same,IC50,[6]; [8],1 µM
"CC(C)n1cnc2c(NC(CO)c3ccccc3)nc(NCC(O)CO)nc21 [P26, 2-(2,3-dihydroxypropylamino)-6-[(R,S)-(1-phenyl-2-hydroxyethyl)amino]-9-isopropylpurine]",IC50,"[3]; Homo sapiens, KG-1, 96 h",20 ± 1 µM
same,CC50,[4],20 ± 1 µM
same,IC50,"[5]; Homo sapiens, MOLT-3",23.7 ± 3.4 µM
same,IC50,[6]; [8],> 100 µM
"CC(C)n1cnc2c(SCc3ccccc3)nc(NCCCO)nc21 [P25, 2-(3-hydroxypropylamino)-6-benzylthio-9-isopropylpurine]",IC50,"[3]; Homo sapiens, KG-1, 96 h",42 ± 5 µM
same,CC50,[4],18 ± 1.6 µM
same,IC50,"[5]; Homo sapiens, MOLT-3",19 ± 2 µM
same,IC50,[6]; [8],> 100 µM
CC(O)CNc1nc(NC(CO)c2ccccc2)c2ncn(C(C)C)c2n1 (stereo not shown),IC50,[6]; Table 3,0.6 µM
CC(C)n1cnc2c(N(C)CCc3ccc(O)c(O)c3)nc(NCCO)nc21,EC50,[7],4 µM
same,IC50,[1],26 µM
same,IC50,[2],27 µM
CCCCCCNc1nc(NCc2ccc(O)c(O)c2)c2ncn(C(C)C)c2n1,IC50,[1],21 µM
same,IC50,[2],22 µM
CC[C@@H](CO)Nc1nc(NC(CO)c2ccccc2)c2ncn(C(C)C)c2n1 (stereo partly shown),EC50,[7],14 µM
same,IC50,[1],24 µM
same,IC50,[2],20 µM
"Cn1cnc2c(NC(CO)c3ccccc3)nc(N3CCOCC3)nc21 (stereo not shown) [P21, 2-(morpholino)-6-(1-phenyl-2-hydroxyethylamino)-9-methylpurine]",IC50,"[3]; Homo sapiens, KG-1, 96 h",48 ± 1.5 µM
same,CC50,[4],40 ± 7.7 µM
same,IC50,"[5]; Homo sapiens, MOLT-3",50 ± 1.3 µM
same,IC50,[6]; [8],6.5 µM
CC[C@@H](CO)Nc1nc(NCc2ccc(O)c(O)c2)c2ncn(C(C)C)c2n1,IC50,[1],53 µM
same,IC50,[2],51 µM
CC(C)n1cnc2c(NC(CO)c3ccccc3)nc(NC[C@H](C)O)nc21 (stereo partly shown),EC50,[7],27 µM
same,IC50,[1],5.6 µM
same,IC50,[2],8 µM
CC(Nc1nc(NCCCO)nc2c1ncn2C(C)C)c1ccc(O)c(O)c1 (stereo not shown) [P18],IC50,[3]; 96 hours of culture,18.7 ± 0.3 µM
same,IC50,[4],14.9 ± 2.9 µM
same,IC50,[5],23 ± 2.8 µM
same,IC50,[6]; [8],2.6 µM
CC[C@@H](CO)Nc1nc(N(C)CCc2ccc(O)c(O)c2)c2ncn(C(C)C)c2n1,EC50,[7],1.8 µM
same,IC50,[1],34 µM
same,IC50,[2],36 µM
CC(C)n1cnc2c(N(C)CCc3ccc(O)c(O)c3)nc(NC[C@@H](C)O)nc21,EC50,[7],7 µM
same,IC50,[1],14 µM
same,IC50,[2],13 µM
CC(C)n1cnc2c(NC(CO)c3ccccc3)nc(NC[C@@H](C)O)nc21 (stereo partly shown),EC50,[7],23 µM
same,IC50,[1],74.6 µM
same,IC50,[2],70 µM
CC(Nc1nc(NCCCO)nc2c1ncn2C(C)C)c1ccc(O)c(O)c1 (stereo not shown) [P20],IC50,[4],35 ± 7.3 µM
CC(C)n1cnc2c(NCc3ccc(O)c(O)c3)nc(NC[C@@H](C)O)nc21,IC50,[1],41 µM
same,IC50,[2],35 µM
